From ChEMBL document CHEMBL1151185, “Isolation and structure elucidation of a novel antimalarial macrocyclic polylactone, menisporopsin A, from the fungus Menisporopsis theobromae” (J Nat Prod, 2004)
≈ marks a conversion by molar mass, not a printed value. Calls of active or inactive are those of the source. No cut-off for these calls is given here.

Experiments:
Candida albicans = assay: Antimicrobial activity against Candida albicans at 20ug/mL; type: functional, organism-based
Plasmodium falciparum [1] = assay: Antimalarial activity against multidrug-resistant Plasmodium falciparum K1 at 20 ug/mL as reduced [3H]hypoxanthine uptake; type: functional, organism-based
BC1 = assay: Cytotoxicity against human BC1 cells at 20 ug/mL by colorimetric method; type: functional, cell-based
Plasmodium falciparum [2] = assay: Antimalarial activity against multidrug-resistant Plasmodium falciparum K1 by [3H]hypoxanthine uptake; type: functional, organism-based
[3] = system: Mycobacterium tuberculosis; assay: Antimycobacterial activity against Mycobacterium tuberculosis H37Ra by microplate alamar blue assay; type: functional
[4] = Cytotoxicity against human BC1 cells by colorimetric method; type: functional, cell-based
KB = assay: Cytotoxicity against human KB cells by colorimetric method; type: functional, cell-based

SMILES | Activity (Candida albicans) | Activity (Plasmodium falciparum [1]) | Activity (BC1) | IC50 (Plasmodium falciparum [2]) | MIC [3] | IC50 [4] | IC50 (KB)
COc1cc2c(c(OC)c1)C(=O)O[C@H](C)CC(=O)O[C@H](C)Cc1cc(OC)cc(OC)c1C(=O)O[C@H](C)CC(=O)O[C@H](C)Cc1cc(OC)cc(OC)c1C(=O)O[C@H](C)C[C@@H](O)C2 | inactive | inactive | inactive | – | – | – | –
C[C@@H]1Cc2cc(O)cc(O)c2C(=O)O[C@H](C)CC(=O)O[C@H](C)Cc2cc(O)cc(O)c2C(=O)O[C@H](C)C[C@@H](O)Cc2cc(O)cc(O)c2C(=O)O[C@H](C)CC(=O)O1 [MENISPOROPSIN A] | inactive | – | – | 4 µg/mL (≈ 5.01 µM) | 50 µg/mL (≈ 62.6 µM) | 5 µg/mL (≈ 6.26 µM) | 6 µg/mL (≈ 7.51 µM)
